Among the data in patent US5801180A, “Quinazoline derivatives” (priority 1991, dated 1998) are IC50 values, retold here.

Structures can show the parent of a compound that is named as a salt.

This assay has as its target T1, cGMP-PDE prepared from the swine aeorta (Sus scrofa, UniProt A0A287B475).
T1 construct: The swine aeorta was sliced; from tissue; host or cells: swine aorta, 100000×g supernatant, DEAE-Toyopearl 650S fraction
Nature of the assay: Enzyme inhibiting action with the use of cGMP-PDE prepared from the swine aorta. The class given is biochemical. To be noted: CaM-independent cGMP-PDE, 1 mM EGTA, 1 μM cGMP substrate, DMSO 4% or below. The procedure, abridged: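 CaM-independent cGMP-PDE isolated from pig aorta supernatant by DEAE anion-exchange chromatography. Activity measured with 1 μM cGMP substrate in presence of 1 mM EGTA, following the Thompson method. Compounds added from DMSO, final DMSO 4% or below.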
As a reminder, the IC50 is the concentration that gives 50% inhibition. Read a high IC50 as a need for much substance. For `CCCCNC(=O)Nc1nc(NCc2ccc3c(c2)OCO3)c2cc(Cl)ccc2n1` [Example 204, 2-(n-Butylcarbamoyl)amino-4-(3,4-methylenedioxybenzyl)amino-6-chloroquinazoline], the IC50 stood at 4 nM.

On to `CCOC(=O)C1CCN(c2nc(NCc3ccc4c(c3)OCO4)c3cc(Cl)ccc3n2)CC1` [Example 206, 2-(4-Ethoxycarbonylpiperidino)-4-(3,4-methylenedioxybenzyl)amino-6-chloroquinazoline hydrochloride], for which the midpoint of inhibition, the IC50, lay at 29 nM. This IC50 is about 7.2-fold higher than that of the compound before.

`CCOC(=O)C1CCN(c2nc(NCc3ccc(OC)c(Cl)c3)c3cc(C#N)ccc3n2)CC1` [Example 208, 2-(4-Ethoxycarbonylpiperidino)-4-(3-chloro-4-methoxybenzyl)amino-6-cyanoquinazoline]: the IC50 was determined as 0.19 nM. This IC50 lies about 150-fold lower than the previous one.

Regarding `CCOC(=O)CNc1nc(NCc2ccc3c(c2)OCO3)c2cc(Cl)ccc2n1` [Example 213, 2-(Ethoxycarbonylmethyl)amino-4-(3,4-methylenendioxybenzyl)amino-6-chloroquinazoline], the IC50 was determined as 23 nM.

On to `CCOC(=O)CCCNc1nc(NCc2ccc3c(c2)OCO3)c2cc(Cl)ccc2n1` [Example 214, 2-(3-Ethoxycarbonylpropyl)amino-4-(3,4-methylenedioxybenzyl)amino-6-chloroquinazoline], for which inhibition was half-maximal at 9 nM (IC50). Against the preceding compound, the IC50 is about 2.6-fold lower.

`CCOC(=O)CCCCCNc1nc(NCc2ccc3c(c2)OCO3)c2cc(Cl)ccc2n1` [Example 216, 2-(5-Ethoxycarbonylpentyl)amino-4-(3,4-methylenedioxybenzyl)amino-6-chloroquinazoline] returned an IC50 of 17 nM.

For the compound `CCOC(=O)CCCN(C)c1nc(NCc2ccc(OC)c(Cl)c2)c2cc(C#N)ccc2n1` [Example 220], the half-inhibitory concentration (IC50) is 0.24 nM.

`O=C(O)C1CCN(c2nc(NCc3ccc4c(c3)OCO4)c3cc(Cl)ccc3n2)CC1` [Example 222, 2-(4-Carboxypiperidino)-4-(3,4-methylenedioxybenzyl)amino-6-chloroquinazoline] gave an IC50 of 6.5 nM.

`N#Cc1ccc2nc(N3CCC(C(=O)O)CC3)nc(NCc3ccc4c(c3)OCO4)c2c1` [Example 227, 2-(4-Carboxypiperidino)-4-(3,4-methylenedioxybenzyl)amino-6-cyanoquinazoline] gave an IC50 of 2.6 nM. This IC50 is about 2.5-fold lower than that of the compound before.

For `COc1ccc(CNc2nc(N3CCC(C(=O)O)CC3)nc3ccc(C#N)cc23)cc1Cl` [Example 228, 2-(4-Carboxypiperidino)-4-(3-chloro-4-methoxybenzyl)amino-6-cyanoquinazoline], 0.52 nM corresponded to half-maximal inhibition (IC50).

`CN(CCCC(=O)O)c1nc(NCc2ccc3c(c2)OCO3)c2cc(C#N)ccc2n1` [Example 230, 2-[N-(3-Carboxypropyl)-N-methylamino]-4-(3,4-methylenedioxybenzyl)amino-6-cyanoquinazoline]: the midpoint of inhibition, the IC50, lay at 5.8 nM.

With `COc1cc2c(NCc3ccc4c(c3)OCO4)nc(N3CCC(C(=O)O)CC3)nc2c(OC)c1OC` [Example 231, 2-(4-Carboxypiperidino)-4-(3,4-methylenedioxybenzyl)amino-6,7,8-trimethoxyquinazoline], the IC50 was determined as 410 nM.

Compound `COc1ccc(CNc2nc(N3CCC(C(=O)O)CC3)nc3c(OC)c(OC)c(OC)cc23)cc1Cl` [Example 232, 2-(4-Carboxypiperidino)-4-(3-chloro-4-methoxybenzyl)amino-6,7,8-trimethoxyquinazoline] returned an IC50 of 44 nM.

The compound `COc1ccc2nc(N3CCC(C(=O)O)CC3)nc(NCc3ccc4c(c3)OCO4)c2c1` [Example 233, 2-(4-Carboxypiperidino)-4-(3,4-methylenedioxybenzyl)amino-6-methoxyquinazoline] displayed an IC50 of 13 nM. This IC50 lies about 3.4-fold lower than the previous one.

Compound `COc1ccc2nc(N3CCC(C(=O)O)CC3)nc(NCc3ccc(OC)c(Cl)c3)c2c1` [Example 234, 2-(4-Carboxypiperidino)-4-(3-chloro-4-mehtoxybenzyl)amino-6-methoxyquinazoline] returned an IC50 of 6 nM.

Compound `COc1ccc(CNc2nc(N3CCC(C(=O)O)CC3)nc3ccc(Cl)cc23)cc1Cl` [Example 235, 2-(4-Carboxypiperidino)-4-(3-chloro-4-methoxybenzyl)amino-6-chloroquinazoline] came in with an IC50 of 2 nM.

The compound `O=C(O)C1CCN(c2nc(NCc3ccc4[nH]cnc4c3)c3cc(Cl)ccc3n2)CC1` [Example 236, 2-(4-Carboxypiperidino)-4-(benzimidazol-5-yl)methylamino-6-chloroquinazoline] registered an IC50 of 6 nM.

The compound `O=C(O)CNc1nc(NCc2ccc3c(c2)OCO3)c2cc(Cl)ccc2n1` [Example 237, 2-(Carboxymethyl)amino-4-(3,4-methylenedioxybenzyl)amino-6-chloroquinazoline] had an IC50 of 14 nM.

`O=C(O)CCCNc1nc(NCc2ccc3c(c2)OCO3)c2cc(Cl)ccc2n1` [Example 238, 2-(3-Carboxypropyl)amino-4-(3,4-methylenedioxybenzyl)amino-6-chloroquinazoline] registered an IC50 of 5 nM.

The compound `O=C(O)CCCCCNc1nc(NCc2ccc3c(c2)OCO3)c2cc(Cl)ccc2n1` [Example 239, 2-(5-Carboxypentyl)amino-4-(3,4-methylenendioxybenzyl)amino-6-chloroquinazoline] showed an IC50 of 8 nM.

`CN(CCCC(=O)O)c1nc(NCc2ccc3c(c2)OCO3)c2cc(Cl)ccc2n1` [Example 240, 2-[N-(3-Carboxypropyl)-N-methylamino]-4-(3,4-methylenedioxybenzyl)amino-6-chloroquinazoline]: 4 nM corresponded to half-maximal inhibition (IC50).

In turn, `CN(CC(=O)O)c1nc(NCc2ccc3c(c2)OCO3)c2cc(C#N)ccc2n1` [Example 241, 2-(N-Carboxymethyl-N-methylamino)-4-(3,4-methylenedioxybenzyl)amino-6-cyanoquinazoline] gave an IC50 of 180 nM.

As to `COc1ccc(CNc2nc(N(C)CCCC(=O)O)nc3ccc(C#N)cc23)cc1Cl` [Example 243, 2-[N-(3-Carboxypropyl)-N-methylamino]-4-(3-chloro-4-methoxybenzyl)amino-6-cyanoquinazoline], the IC50 was determined as 0.15 nM.

Consider `N#Cc1ccc2nc(N3CCC(C(=O)O)CC3)nc(NCc3ccc4nc[nH]c4c3)c2c1` [Example 244, 2-(4-Carboxypiperidino)-4-(benzimidazol-5-yl)methylamino-6-cyanoquinazoline], for which 9 nM corresponded to half-maximal inhibition (IC50).

Regarding `NC(=O)c1ccc2nc(N3CCC(C(=O)O)CC3)nc(NCc3ccc4c(c3)OCO4)c2c1` [Example 245, 2-(4-Carboxypiperidino)-4-(3,4-methylenedioxybenzyl)amino-6-carbamoylquinazoline], half-maximal inhibition (IC50) required 100 nM.

Regarding `O=C(O)C1CCN(c2cc(NCc3ccc4c(c3)OCO4)c3cc(Cl)ccc3n2)CC1` [Example 255, 2-(4-Carboxypiperidino)-4-(3,4-methylenedioxybenzyl)amino-6chloroquinoline], half-maximal inhibition (IC50) was put at 32 nM.

`COc1ccc(CNc2cc(N3CCC(C(=O)O)CC3)nc3ccc(Cl)cc23)cc1Cl` [Example 256, 2-(4-Carboxypiperidino)-4-(3-chloro-4-methoxybenzyl)amino-6-chloroquinoline] gave a concentration for half-maximal inhibition (IC50) of 2.1 nM.

Regarding `COc1ccc(CNc2cc(N3CCC(C(=O)O)CC3)nc3ccc(C#N)cc23)cc1Cl` [Example 260, 2-(4-Carboxypiperidino)-4-(3-chloro-4-methoxybenzyl)amino-6-cyanoquinoline], half-maximal inhibition (IC50) was put at 0.16 nM.

Take `O=C(O)C1CCN(c2nc(NCc3ccc4c(c3)OCO4)c3cccnc3n2)CC1` [Example 262]: 880 nM corresponded to half-maximal inhibition (IC50).

In turn, `COc1nc2ccc(Cl)cc2n1Cc1ccc2c(c1)OCO2` [Example 266, 6-Chloro-2-methoxy-1-(3,4-methylenedioxybenzyl)benzimidazole] gave an IC50 of 110 nM.

Compound `Clc1ccc2nc(-n3ccnc3)n(Cc3ccc4c(c3)OCO4)c2c1` [Example 278, 6-Chloro-2-(imidazol-1-yl)-1-(3,4-methylenedioxybenzyl)benzimidazole] gave an IC50 of 250 nM. Compared with the last compound, the IC50 is about 2.3-fold higher.

`O=C(O)C1CCN(c2nc3ccc(Cl)cc3n2Cc2ccc3c(c2)OCO3)CC1` [Example 280, 2-(4-Carboxypiperidino)-6-chloro-1-(3,4-methylenedioxybenzyl)benzimidazole] yielded an IC50 of 250 nM.

As to `O=C(O)C1CCN(c2nc(NCc3ccc4c(c3)OCO4)c3cc(Br)ccc3n2)CC1` [Example 376], the midpoint of inhibition, the IC50, lay at 21 nM.
